Results on 6 molecules are retold here after patent US20040014187A1, “Bacterial carboxypeptidase cpg2 variants and their use in gene directed enzyme prodrug therapy” (priority 2000, published 2004).

Residue numbers refer to the chain shown, from its start. In names and notes the source's numbering stands. Several values for one entry are separate records, joined by “and”; a condition that tells them apart may be missing. Equal values may be shown once. Entries after “also recorded” stand apart in the source; their conditions may differ. Read-outs that look alike come from different tables or passages of the source.

As a reminder, the IC50 is the concentration that gives 50% inhibition. A word on the Km: it is the concentration of substrate that gives half-maximal velocity.

Series [1] deals with SK-OV-3 cells. To be noted: SK-OV-3 clone expressing CPG2* (1.013 U/mg), previous study; read-out: IC50 for CMDA; cited from earlier work.
For series [2], the system named is A2780 cells. To be noted: A2780 clone expressing CPG2*, previous study; read-out: IC50 for CMDA; cited from earlier work.
For series [3], the system named is WiDr cells. To be noted: WiDr clone expressing CPG2*, previous study; read-out: IC50 for CMDA; cited from earlier work.
For series [4] the following is noted: patients, ADEPT trial; cited from earlier work.
Series [5] concerns WiDr cells. As to the kind of experiment: Cytotoxicity of CMDA, [3H]-thymidine incorporation. The format is cell-based, human. The method, then: (§1) Cytotoxicity and bystander cytotoxicity assays were performed as described previously (Marais et al (1996) Cancer Res. 56, 4735-4742). Briefly, for cytotoxicity assays, cells were grown to confluence and treated twice, once for an hour, immediately followed by an 18 h treatment, using increasing amounts of CMDA prodrug in DMEM/FCS. Cells were trypsinized and approximately 3% were replated and allowed to grow for a further 4 days, when uptake of [^3H]-thymidine was used to infer survival. For bystander assays, mixtures of cells expressing stCPG2(Q)3 and cells of the same lineage expressing β-galactosidase were treated with a single concentration of CMDA in the same two-stage treatment protocol, using 2 mM CMDA for WiDr and SK-OV-3 cells and 1 mM CMDA for A2780 cells.
On the technique in general: Uptake of a labelled nucleoside into DNA is a usual measure of proliferation.

Series [6] concerns A2780 cells. Nature of the series: Cytotoxicity of CMDA, [3H]-thymidine incorporation. The class given is cell-based, human. How it is done: as §1
Series [7] concerns SK-OV-3 cells. Nature of the series: Cytotoxicity of CMDA, [3H]-thymidine incorporation. The class given is cell-based, human. The method, then: as §1
Series [8] relates to control cell lines expressing lacZ. Nature of the series: Kinetics of cell death: toxicity of CMDA test concentrations to control cells. Particulars: 2 mM CMDA (WiDr, SK-OV-3) or 1 mM CMDA (A2780). The format is cell-based, human. The method, then: To determine exposure times to CMDA required for the death of 50% of the cell populations, cell lines were plated at 3×10^5 cells per well in 6-well tissue culture plates, and allowed to grow to confluence. Tissue culture medium was replaced with 1 ml DMEM/FCS containing 2 mM CMDA (for WiDr and SK-OV-3 cell lines) or 1 mM CMDA (for A2780 cell lines). These concentrations are not toxic to control cell lines expressing lacZ. After 0.5, 1, 2, 4, 8, 12, and 16 h exposure, cells were trypsinized and approximately 3% were replated. After a further 4 d growth, cell survival was determined by [^3H]-thymidine incorporation (0.4 μCi/ml, 6h).

The nature of series [9]: Enzyme kinetic studies of CPG2-derived enzymes in detergent soluble cell extracts, MTX as substrate. The class given is biochemical. To be noted: for Catalytic activity (%): specific activity of COS/CPG2* (50 ng CPG2*) assigned as 100%; for Km: substrate MTX, detergent soluble cell extract, read-out: Km (μM MTX). The text has this:
Detergent soluble cell extracts, and enzyme kinetic analyses have been described previously (Marais et al (1996) Cancer Res. 56, 4735-4742; Marais et al (1997) Nature Biotech. 15, 1373-1377).

Series [10] concerns the molecule itself. Nature of the series: non-reducing SDS-PAGE of COS cell extracts (homodimer).
Text: We first determined why the asparagine to glutamine mutations that blocked glycosylation reduced CPG2s enzyme activity. […] We next tested each position independently.
For series [11] the following is noted: previous study, cited from earlier work.
Series [12] in a line: CPG2 enzyme activity in detergent soluble extracts of stably expressing clones, MTX as substrate. The format is biochemical. Particulars: for CPG2 activity (U/mg): U/mg detergent soluble protein, clone as in label. From the text:
All mammalian cell lines were maintained in Dulbecco's Modified Eagle's Medium supplemented with 10% foetal calf serum (DMEM/FCS). For this study, the human colorectal carcinoma cell line WiDr (Noguchi et al (1979) In Vitro. 15, 401-408, and the human ovarian carcinoma cell lines SK-OV-3 (Hill et al. (1987) 39, 219-225) and A2780 (Louie et al. (1985) Cancer Res. 45, 2110-2115) were separately transfected with the plasmid pMCEFstcpg2(Q)3 (Marais et al (1997) Nature Biotech. 15, 1373-1377) and G418-resistant colonies were selected by limiting dilution. Detergent soluble extracts were incubated with methotrexate, a good carboxypeptidase G2 substrate. Rate of change of absorbance at 320 nm was measured to identify those colonies able to degrade MTX and therefore likely to express stCPG2(Q)3. Expression of stCPG2(Q)3 was confirmed by immunoblotting these detergent soluble extracts using a rabbit polyclonal serum specific for CPG2 (Marais et al (1996) Cancer Res. 56, 4735-4742; Marais et al (1997) Nature Biotech. 15, 1373-1377). Cell lines constitutively expressing β-galactosidase or CPG2* have been described (Marais et al (1996) Cancer Res. 56, 4735-4742; Marais et al (1997) Nature Biotech. 15, 1373-1377).
In order to conduct these studies, we engineered WiDr (human colorectal adenocarcinoma), SK-OV-3 and A2780 (both human ovarian tumour lines) cells for stable expression of stCPG2(Q)3. The presence of stCPG2(Q)3 was verified by immunoprotein blotting (data not shown) and the levels of enzyme activity in these clones were determined using MTX as substrate (Table 2). For each line two or three clones were examined. The SK-OV-3 clones expressed the lowest levels of CPG2 activity (0.016 and 0.023 U/mg protein) followed by the A2780 clones (0.06 and 0.067 U/mg), with WiDr clones expressing the highest level of CPG2 activity (0.177 and 0.226 U/mg) (Table 2).

A short description of series [13]: CPG2 dimer stability by non-reducing SDS-polyacrylamide gel electrophoresis of COS cell extracts. Particulars: sample not heated.
Text: To test this, CPG2* was transiently expressed in COS cells and the stability of the dimers determined by non-reducing SDS-polyacrylamide gels.

Take `CS(=O)(=O)OCCN(CCCl)c1ccc(C(=O)N[C@@H](CCC(=O)O)C(=O)O)cc1` [CMDA, N-4-[(2-chloroethyl) (2-mesyloxyethyl)amino]benzoyl-L-glutamic acid]: the IC50 is 258 µM in the series on SK-OV-3 cells [1]; 23.2 µM in the series on A2780 cells [2]; 277 µM in the series on WiDr cells [3]; 100 to 150 µM and 100 µM and 147 µM with WiDr cells [5] (WiDr clones expressing stCPG2(Q)3, read-out: IC50 for CMDA); 3230 µM in the series on WiDr cells [5] (WiDr expressing lacZ (β-gal), read-out: IC50 (μM CMDA)); 15.6 µM in the series on A2780 cells [6] (A2780 clone A3 expressing stCPG2(Q)3). Further, the IC50 was determined as 20.4 µM in the series with A2780 cells [6] (A2780 clone A4 expressing stCPG2(Q)3); 2150 µM with A2780 cells [6] (A2780 expressing lacZ (β-gal)); 1290 µM in the series on SK-OV-3 cells [7] (SK-OV-3 clone S2.34 expressing CPG2*, read-out: IC50 (μM CMDA)); 3200 µM with SK-OV-3 cells [7] (SK-OV-3 clone S2.4 expressing CPG2*, read-out: IC50 (μM CMDA)); 216 µM in the series with SK-OV-3 cells [7] (SK-OV-3 clone S5 expressing stCPG2(Q)3, read-out: IC50 (μM CMDA)); 479 µM in the series on SK-OV-3 cells [7] (SK-OV-3 clone S6 expressing stCPG2(Q)3, read-out: IC50 (μM CMDA)). Also, the IC50 is 544 µM in the series on SK-OV-3 cells [7] (SK-OV-3 clone S7 expressing stCPG2(Q)3, read-out: IC50 (μM CMDA)); 216 to 544 µM in the series with SK-OV-3 cells [7] (SK-OV-3 clones expressing stCPG2(Q)3, read-out: IC50 for CMDA); 4180 µM with SK-OV-3 cells [7] (SK-OV-3 expressing lacZ, read-out: IC50 (μM CMDA)). For the same molecule, the “peak CMDA concentration in sera” value in series [4] is “approximately 3 mM”. The “Differential cytotoxicity (fold)” value in the series on WiDr cells [5] (WiDr clone W3 stCPG2(Q)3 versus lacZ) is recorded as 32.3 fold; in the series with WiDr cells [5] (WiDr clone W4 stCPG2(Q)3 versus lacZ), 22.0 fold; in the series with A2780 cells [6] (A2780 clone A3 stCPG2(Q)3 versus lacZ) it was 138 fold; with A2780 cells [6] (A2780 clone A4 stCPG2(Q)3 versus lacZ), 105 fold; in the series on SK-OV-3 cells [7] (SK-OV-3 clone S2.34 CPG2* versus lacZ), 3.2 fold; in the series with SK-OV-3 cells [7] (SK-OV-3 clone S2.4 CPG2* versus lacZ), 1.3 fold. For the same molecule, the “Differential cytotoxicity (fold)” value with SK-OV-3 cells [7] (SK-OV-3 clone S5 stCPG2(Q)3 versus lacZ) was 19.4 fold; in the series with SK-OV-3 cells [7] (SK-OV-3 clone S6 stCPG2(Q)3 versus lacZ), 8.7 fold; in the series with SK-OV-3 cells [7] (SK-OV-3 clone S7 stCPG2(Q)3 versus lacZ), 7.7 fold. In addition, the “increase in sensitivity compared to β-gal expressing cells” value is on record as more than 100 fold in the series with A2780 cells [6] (A2780 clones expressing stCPG2(Q)3) and 7-20 fold with SK-OV-3 cells [7] (SK-OV-3 clones expressing stCPG2(Q)3). The “toxicity to control cell lines expressing lacZ” value in series [8] is recorded as “not toxic”.

B1: CPG2* (cytosolic carboxypeptidase G2 from Pseudomonas strain RS16) (enzyme)
chain: ALAQKRDNVLFQAATDEQPAVIKTLEKLVNIETGTGDAEGIAAAGNFLEAELKNLGFTVTRSKSAGLVVGDNIVGKIKGRGGKNLLLMSHMDTVYLKGILAKAPFRVEGDKAYGPGIADDKGGNAVILHTLKLLKEYGVRDYGTITVLFNTDEEKGSFGSRDLIQEEAKLADYVLSFEPTSAGDEKLSLGTSGIAYVQVNITGKASHAGAAPELGVNALVEASDLVLRTMNIDDKAKNLRFNWTIAKAGNVSNIIPASATLNADVRYARNEDFDAAMKTLEERAQQKKLPEADVKVIVTRGRPAFNAGEGGKKLVDKAVAYYKEAGGTLGVEERTGGGTDAAYAALSGKPVIESLGLPGFGYHSDKAEYVDISAIPRRLYMAARLIMDLGAGK
notes: Homodimer; also called COS/CPG2*
As to B1, the “Catalytic activity (%)” value in series [9] amounted to 100%. For the same molecule, the Michaelis constant (Km) in series [9] was 7.2 µM. For the same molecule, in [10], the binding result is “binds”. Further, the CPG2 enzyme activity in series [11] (A2780 clone expressing CPG2*) was 0.964 U/mg; in [11] (SK-OV-3 clone expressing CPG2*), 1.013 U/mg; in series [11] (WiDr clone expressing CPG2*) it was 0.787 U/mg. Moreover, the “enzyme activity of CPG2* clone relative to stCPG2(Q)3 clones” value in [12] (A2780) is given as approximately 15 times. Besides, the “CPG2 activity (U/mg)” value worked out at 0.023 U/mg in [12] (listed as S2.34 CPG2*) and 0.014 U/mg in series [12] (listed as S2.4 CPG2*).

B2: CPG2*(N222L) (enzyme)
chain: B1 chain with N200L
notes: Cytosolic form expressed in COS cells
Regarding B2, the dimer stability result in series [13] is on record as “formed stable dimers”. For the same molecule, the binding result in series [10] is “binds”.

B3: CPG2*(QSQ) (enzyme)
chain: B1 chain with N200Q, N242S, N250Q
notes: also called COS/CPG2* (QSQ)
As for B3, in series [13], the dimer stability result is listed as “improved; also recorded: restored weak dimer stability”. The “catalytic activity compared to CPG2*(Q)3” value in series [9] (increase relative to CPG2*(Q)3) is on record as “almost twice as active”. The “increase in Km (decrease in apparent affinity for MTX) compared to CPG2*(Q)3” value in series [9] (relative to CPG2*(Q)3) was approximately 6 fold. Besides, in series [9], the “Catalytic activity (%)” value is listed as 58% and the Km amounted to 58 µM. Also, the binding result in [10] was “binds”.

B4: stCPG2(QAQ): surface tethered CPG2, Q222, A264, Q272 (protein)
chain: ALAQKRDNVLFQAATDEQPAVIKTLEKLVNIETGTGDAEGIAAAGNFLEAELKNLGFTVTRSKSAGLVVGDNIVGKIKGRGGKNLLLMSHMDTVYLKGILAKAPFRVEGDKAYGPGIADDKGGNAVILHTLKLLKEYGVRDYGTITVLFNTDEEKGSFGSRDLIQEEAKLADYVLSFEPTSAGDEKLSLGTSGIAYVQVQITGKASHAGAAPELGVNALVEASDLVLRTMNIDDKAKNLRFAWTIAKAGQVSNIIPASATLNADVRYARNEDFDAAMKTLEERAQQKKLPEADVKVIVTRGRPAFNAGEGGKKLVDKAVAYYKEAGGTLGVEERTGGGTDAAYAALSGKPVIESLGLPGFGYHSDKAEYVDISAIPRRLYMAARLIMDLGAGKDLDDKGCPAEQRASPLTSIISAVVGILLVVVLGVVFGILIKRRQQKIRKYT
In the case of B4, in series [13], the dimer stability entry is reported as “did nor form stable dimers”. In series [9], the “Catalytic activity (%)” value is on record as 38% and the Michaelis constant (Km) amounted to 69 µM.

B5: stCPG2(QSQ): surface tethered CPG2, Q222, S264, Q272 (protein)
chain: B4 chain with A242S
As for B5, in series [13], the dimer stability entry was “weak dimers”. Further, in series [9], the “Catalytic activity (%)” value was 40% and the Km turned out to be 51 µM.
